Data published in patent US20250049036A1 (priority 2021, published 2025).

Tested on: Pyricularia oryzae
Assay: microbe, parasite or virus in culture
Assay type: cell-based
Details: 168 h, read-out: control compared to the untreated check

Row | SMILES | inhibition of growth at 300 ppm
1 | Cc1ccccc1C(=O)OCC(C)(C)NC(=O)c1cnc2c(c1)c(Br)cn2C [Compound 185, 2-(3-bromo-1-methyl-1H-pyrrolo[2,3-b]pyridine-5-carboxamido)-2-methylpropyl 2-methylbenzoate] | ≥ 70%
2 | Cn1cc(Cl)c2cc(C(=O)NC(C)(C)COc3ccnc(Cl)c3)cnc21 [Compound 220, 3-chloro-N-(1-((2-chloropyridin-4-yl)oxy)-2-methylpropan-2-yl)-1-methyl-1H-pyrrolo[2,3-b]pyridine-5-carboxamide] | ≥ 70%
3 | Cn1cc(Cl)c2cc(C(=O)NC(C)(C)COCc3cc(F)ccc3Cl)cnc21 [Compound 214, 3-chloro-N-(1-((2-chloro-5-fluorobenzyl)oxy)-2-methylpropan-2-yl)-1-methyl-1H-pyrrolo[2,3-b]pyridine-5-carboxamide] | ≥ 70%
4 | Cn1ccc2cc(C(=O)NC(C)(C)Cc3ccc(Cl)c(Cl)c3)cnc21 [Compound 24, N-(1-(3,4-dichlorophenyl)-2-methylpropan-2-yl)-1-methyl-1H-pyrrolo[2,3-b]pyridine-5-carboxamide] | ≥ 70%
5 | Cn1cc(Br)c2cc(C(=O)NC(C)(C)Cc3ccccc3F)cnc21 [Compound 58, 3-bromo-N-(1-(2-fluorophenyl)-2-methylpropan-2-yl)-1-methyl-1H-pyrrolo[2,3-b]pyridine-5-carboxamide] | ≥ 70%
6 | O=C(NC1(C(F)(F)F)CC1)c1cnc2ccsc2c1 [Compound 108, N-(1-(trifluoromethyl)cyclopropyl)thieno [3,2-b]pyridine-6-carboxamide] | ≥ 70%
7 | C=C(C)CC(C)(COc1ccccc1F)NC(=O)c1cnc2c(c1)c(Br)cn2C (centres unmarked) [Compound 176, 3-bromo-N-(1-(2-fluorophenoxy)-2,4-dimethylpent-4-en-2-yl)-1-methyl-1H-pyrrolo[2,3-b]pyridine-5-carboxamide] | ≥ 70%
8 | Cn1cc(Br)c2cc(C(=O)NC(C)(C)COC(=O)c3ccccc3C(F)(F)F)cnc21 [Compound 180, 2-(3-bromo-1-methyl-1H-pyrrolo[2,3-b]pyridine-5-carboxamido)-2-methylpropyl 2-(trifluoromethyl)benzoate] | ≥ 70%

Tested on: Phakopsora pachyrhizi
Assay: Phakopsora pachyrhizi test on soybean, preventive, greenhouse
Assay type: in vivo
Details: preventive spray on soybean, inoculated one day after treatment, read-out: control (efficacy, disease severity) compared to the untreated check
Procedure: The respective compound was dissolved in 2% dimethyl sulfoxide/acetone and then mixed with water containing emulsifier to the calibrated spray volume of 30 mL. Each spray solution was poured into a spray bottle for further application.
To test the preventive activity of a compound, healthy young soybean plants, raised in the greenhouse, were sprayed with the active compound preparation at the stated application rate inside the spray cabinets using hollow cone nozzles. One day after treatment, the plants were inoculated with a conidial suspension containing 2×10^5 Phakopsora pachyrhizi inoculum. The inoculated plants were then kept in a greenhouse chamber at 22-24° C. temperature and 80-90% relative humidity for disease expression.

Row | SMILES | pest or weed control at 500 ppm
9 | Cc1cccc(CC(NC(=O)c2cnc3[nH]ccc3c2)C(C)(C)O)c1 (centres unmarked) [Compound 104, N-(3-hydroxy-3-methyl-1-(m-tolyl)butan-2-yl)-1H-pyrrolo[2,3-b]pyridine-5-carboxamide] | ≥ 70%
10 | CCC(O)(CC)C(NC(=O)c1cnc2c(c1)c(Cl)cn2C)c1ccccc1 (centres unmarked) [Compound 138, 3-chloro-N-(2-ethyl-2-hydroxy-1-phenylbutyl)-1-methyl-1H-pyrrolo[2,3-b] pyridine-5-carboxamide] | ≥ 70%
11 | C=CCC(C)(Cc1ccccc1F)NC(=O)c1cnc2ccsc2c1 (centres unmarked) [Compound 134, N-(1-(2-fluorophenyl)-2-methylpent-4-en-2-yl)thieno[3,2-b] pyridine-6-carboxamide] | ≥ 70%
12 | Cn1cc(Cl)c2cc(C(=O)NC3(c4cc(Cl)cc(Cl)c4)CC3)cnc21 [Compound 140, 3-chloro-N-(1-(3,5-dichlorophenyl)cyclopropyl)-1-methyl-1H-pyrrolo[2,3-b]pyridine-5-carboxamide] | ≥ 70%
13 | Cn1ccc2cc(C(=O)NC(C)(C)Cc3ccc(Cl)c(Cl)c3)cnc21 [Compound 24, N-(1-(3,4-dichlorophenyl)-2-methylpropan-2-yl)-1-methyl-1H-pyrrolo[2,3-b]pyridine-5-carboxamide] | ≥ 70%
14 | Cn1cc(Br)c2cc(C(=O)NC(C)(C)Cc3ccccc3F)cnc21 [Compound 58, 3-bromo-N-(1-(2-fluorophenyl)-2-methylpropan-2-yl)-1-methyl-1H-pyrrolo[2,3-b]pyridine-5-carboxamide] | ≥ 70%
15 | Cn1ccc2cc(C(=O)NC(C)(C)Cc3cccc(Cl)c3)cnc21 [Compound 22, N-(1-(3-chlorophenyl)-2-methylpropan-2-yl)-1-methyl-1H-pyrrolo[2,3-b]pyridine-5-carboxamide] | ≥ 70%
16 | Cc1nc2[nH]ccc2cc1C(=O)NC(C)(C)Cc1ccc(F)cc1 [Compound 94, N-(1-(4-fluorophenyl)-2-methylpropan-2-yl)-6-methyl-1H-pyrrolo[2,3-b]pyridine-5-carboxamide] | ≥ 70%
17 | COc1nc2[nH]ccc2cc1C(=O)NC(C)(C)Cc1ccccc1 [Compound 88, 6-methoxy-N-(2-methyl-1-phenylpropan-2-yl)-1H-pyrrolo[2,3-b] pyridine-5-carboxamide] | ≥ 70%
18 | CC(c1ccccc1)C(C)(C)NC(=O)c1cnc2c(c1)c(Cl)cn2C (centres unmarked) [Compound 87, 3-chloro-1-methyl-N-(2-methyl-3-phenylbutan-2-yl)-1H-pyrrolo[2,3-b]pyridine-5-carboxamide] | ≥ 70%
19 | C=C(C)CC(C)(Cc1ccccc1F)NC(=O)c1cnc2c(c1)c(Br)cn2C (centres unmarked) [Compound 142, 3-bromo-N-(1-(2-fluorophenyl)-2,4-dimethylpent-4-en-2-yl)-1-methyl-1H-pyrrolo[2,3-b]pyridine-5-carboxamide] | ≥ 70%
20 | Cn1cc(Cl)c2cc(C(=O)NC3Cc4ccccc4C3)cnc21 [Compound 137, 3-chloro-N-(2,3-dihydro-1H-inden-2-yl)-1-methyl-1H-pyrrolo[2,3-b]pyridine-5-carboxamide] | ≥ 70%
21 | Cc1nc2[nH]ccc2cc1C(=O)NC(C)(C)Cc1ccccc1 [Compound 93, 6-methyl-N-(2-methyl-1-phenylpropan-2-yl)-1H-pyrrolo[2,3-b] pyridine-5-carboxamide] | ≥ 70%

Tested on: Parastagonospora nodorum
Assay: Parastagonospora nodorum (PARANO) spore growth inhibition in liquid medium, 96-well microtiter plate, OD 600
Assay type: cell-based
Details: spore suspension in PDB liquid medium, 18° C., 5-6 days, OD at 600, read-out: control compared to the untreated check
Procedure: Potato dextrose (PDB) liquid medium (Difco) containing a PARANO (10^5 spores/ml) spore suspension was prepared. For the inhibition assay, each test compound was solved in dimethyl sulfoxide. 100 μl of the test compound in media-solution was added to a 96-well microtiter plate, consequently, the same volume (100 μl) of spore suspension was added to the well making the final test concentrations and the plate was incubated at 18° C. for 5-6 days. The growth inhibition was evaluated by measuring the OD at 600. Percent inhibition was calculated with the below formula: […]

Row | SMILES | inhibition of growth at 300 ppm
22 | CON(C(=O)c1cnc2c(c1)CCC2)C(C)Cc1ccccc1F (centres unmarked) [Compound 253, N-(1-(2-fluorophenyl)propan-2-yl)-N-methoxy-6,7-dihydro-5H-cyclopenta[b]pyridine-3-carboxamide] | ≥ 70%
23 | Cn1cc(C2CC2)c2cc(C(=O)NC(C)(C)Cc3ccccc3F)cnc21 [Compound 60, 3-cyclopropyl-N-(1-(2-fluorophenyl)-2-methylpropan-2-yl)-1-methyl-1H-pyrrolo[2,3-b]pyridine-5-carboxamide] | ≥ 70%
24 | COc1nc2c(cc1C(=O)NC1(Cc3ccccc3)CC1)CCC2 [Compound 245, N-(1-benzylcyclopropyl)-2-methoxy-6,7-dihydro-5H-cyclopenta[b]pyridine-3-carboxamide] | ≥ 70%
25 | Cc1cc(F)ccc1C(O)C(C)(C)NC(=O)c1cnc2ccsc2c1 (centres unmarked) [Compound 173, N-(1-(4-fluoro-2-methylphenyl)-1-hydroxy-2-methylpropan-2-yl)thieno[3,2-b] pyridine-6-carboxamide] | ≥ 70%
26 | Cn1ccc2cc(C(=O)NC(C)(C)Cc3ccc(C(C)(C)C)cc3)cnc21 [Compound 16, N-(1-(4-(tert-butyl)phenyl)-2-methylpropan-2-yl)-1-methyl-1H-pyrrolo[2,3-b]pyridine-5-carboxamide] | ≥ 70%
27 | Cc1ccc(F)cc1C(O)C(C)(C)NC(=O)c1cnc2c(c1)c(Br)cn2C (centres unmarked) [Compound 135, 3-bromo-N-(1-(5-fluoro-2-methylphenyl)-1-hydroxy-2-methylpropan-2-yl)-1-methyl-1H-pyrrolo[2,3-b]pyridine-5-carboxamide] | ≥ 70%
28 | C=C(C)CC(C)(COc1ccccc1F)NC(=O)c1cnc2c(c1)c(Cl)cn2C (centres unmarked) [Compound 179] | ≥ 70%
29 | Cn1ccc2cc(C(=O)NC(C)(C)Cc3ccccc3Cl)cnc21 [Compound 17, N-(1-(2-chlorophenyl)-2-methylpropan-2-yl)-1-methyl-1H-pyrrolo[2,3-b]pyridine-5-carboxamide] | ≥ 70%
30 | CC(C)(Cc1ccccc1)NC(=O)c1cc2c(nc1Cl)CCC2 [Compound 210, 2-chloro-N-(2-methyl-1-phenylpropan-2-yl)-6,7-dihydro-5H-cyclopenta[b]pyridine-3-carboxamide] | ≥ 70%
31 | CC(C)(COc1ccnc(Cl)c1)NC(=O)c1cnc2ccsc2c1 [Compound 205, N-(1-((2-chloropyridin-4-yl)oxy)-2-methylpropan-2-yl)thieno[3,2-b] pyridine-6-carboxamide] | ≥ 70%
32 | COc1nc2c(cc1C(=O)NC(C)(C)Cc1ccccc1)CCC2 [Compound 217, 2-methoxy-N-(2-methyl-1-phenylpropan-2-yl)-6,7-dihydro-5H-cyclopenta[b]pyridine-3-carboxamide] | ≥ 70%
33 | COc1nc2c(cc1C(=O)NC(C)(C)COc1ccnc(Cl)c1)CCC2 [Compound 243, N-(1-((2-chloropyridin-4-yl)oxy)-2-methylpropan-2-yl)-2-methoxy-6,7-dihydro-5H-cyclopenta[b]pyridine-3-carboxamide] | ≥ 70%
34 | CC(C)c1ccc(CC(C)(C)NC(=O)c2cnc3c(ccn3C)c2)cc1 [Compound 18, N-(1-(4-isopropylphenyl)-2-methylpropan-2-yl)-1-methyl-1H-pyrrolo[2,3-b]pyridine-5-carboxamide] | ≥ 70%
35 | Cc1ccc(C)c(COCC(C)(C)NC(=O)c2cnc3c(ccn3C)c2)c1 [Compound 227, N-(1-((2,5-dimethylbenzyl)oxy)-2-methylpropan-2-yl)-1-methyl-1H-pyrrolo[2,3-b]pyridine-5-carboxamide] | ≥ 70%
36 | O=C(NC1(C(F)(F)F)CC1)c1cnc2ccsc2c1 [Compound 108, N-(1-(trifluoromethyl)cyclopropyl)thieno [3,2-b]pyridine-6-carboxamide] | ≥ 70%
37 | C=C(C)CC(C)(COc1ccccc1F)NC(=O)c1cnc2c(c1)c(Br)cn2C (centres unmarked) [Compound 176, 3-bromo-N-(1-(2-fluorophenoxy)-2,4-dimethylpent-4-en-2-yl)-1-methyl-1H-pyrrolo[2,3-b]pyridine-5-carboxamide] | ≥ 70%
38 | Cc1ccc(COCC(C)(C)NC(=O)c2cnc3ccsc3c2)c(C)c1 [Compound 200, N-(1-((2,4-dimethylbenzyl)oxy)-2-methylpropan-2-yl)thieno[3,2-b] pyridine-6-carboxamide] | ≥ 70%
